The source made the active and inactive calls. The rule behind the calls is not given here.
How the values were obtained:
[1] = target: T1, GRB10-interacting GYF protein 2 (Homo sapiens) (UniProt Q6Y7W6); assay: (§1) Binding affinity to recombinant His-tagged Grb10 interacting GYF protein 2 (745-1030 amino acids) (unknown origin) by surface plasmon resonance analysis
T1 sequence (whole entry): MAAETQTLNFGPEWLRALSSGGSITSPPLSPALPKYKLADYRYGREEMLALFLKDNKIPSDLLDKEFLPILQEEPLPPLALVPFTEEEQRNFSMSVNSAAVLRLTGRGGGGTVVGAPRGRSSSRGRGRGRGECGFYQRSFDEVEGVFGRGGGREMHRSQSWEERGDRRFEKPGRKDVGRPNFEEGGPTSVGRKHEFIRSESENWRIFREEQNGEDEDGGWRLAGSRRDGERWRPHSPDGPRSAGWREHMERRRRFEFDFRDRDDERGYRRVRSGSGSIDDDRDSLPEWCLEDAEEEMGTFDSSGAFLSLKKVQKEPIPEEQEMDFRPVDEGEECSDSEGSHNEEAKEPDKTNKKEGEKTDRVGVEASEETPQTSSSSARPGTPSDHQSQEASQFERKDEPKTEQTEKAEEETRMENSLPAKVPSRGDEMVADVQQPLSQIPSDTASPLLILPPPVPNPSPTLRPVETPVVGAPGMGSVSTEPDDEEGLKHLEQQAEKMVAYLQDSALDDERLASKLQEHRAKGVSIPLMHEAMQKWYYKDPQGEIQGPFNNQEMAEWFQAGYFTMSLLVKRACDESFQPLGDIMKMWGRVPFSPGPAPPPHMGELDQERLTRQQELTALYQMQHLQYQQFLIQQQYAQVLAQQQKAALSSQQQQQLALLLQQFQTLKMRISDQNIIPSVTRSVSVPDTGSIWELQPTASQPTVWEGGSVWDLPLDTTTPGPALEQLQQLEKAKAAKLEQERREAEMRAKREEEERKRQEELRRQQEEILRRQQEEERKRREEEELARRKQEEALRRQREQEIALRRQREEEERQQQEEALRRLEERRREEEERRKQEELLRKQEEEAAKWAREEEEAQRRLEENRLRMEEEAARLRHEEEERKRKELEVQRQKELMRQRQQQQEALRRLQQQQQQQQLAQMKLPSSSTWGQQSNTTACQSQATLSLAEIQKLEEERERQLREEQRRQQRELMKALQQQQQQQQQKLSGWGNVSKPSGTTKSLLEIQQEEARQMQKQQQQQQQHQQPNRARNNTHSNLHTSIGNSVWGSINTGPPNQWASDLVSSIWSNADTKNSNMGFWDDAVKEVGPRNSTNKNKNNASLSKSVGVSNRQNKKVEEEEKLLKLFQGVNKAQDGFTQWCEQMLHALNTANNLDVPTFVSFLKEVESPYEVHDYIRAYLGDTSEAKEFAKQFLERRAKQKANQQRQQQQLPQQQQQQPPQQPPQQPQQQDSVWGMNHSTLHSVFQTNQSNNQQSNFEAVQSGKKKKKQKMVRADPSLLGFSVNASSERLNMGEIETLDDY

[2] = target: T1, GRB10-interacting GYF protein 2 (Homo sapiens); assay: Binding affinity to Flag-tagged Grb10 interacting GYF protein 2 (unknown origin) expressed in HEK293T cells by Western blotting method based pull-down assay; format: cell-based; conditions: HEK-293T
[3] = target: T1, GRB10-interacting GYF protein 2 (Homo sapiens); assay: Binding affinity to Grb10 interacting GYF protein 2 in human Jurkat cells using 10 uM compound immobilized on streptavidin-coated wells by T7 phase display screening method; format: cell-based
[4] = target: T2, GRB10-interacting GYF protein 2 (Homo sapiens, UniProt Q6Y7W6); assay: as §1
T2 sequence (Q6Y7W6 whole entry): T1 sequence (whole entry)

With `CCC(=C(c1ccc(OCCN2CCOCC2)cc1)c1ccc(OCCN2CCOCC2)cc1)c1cccc(OC(=O)CCCCCNC(=O)CCCC[C@@H]2SC[C@@H]3NC(=O)N[C@@H]32)c1` the Activity [1] was “inactive”, the Activity [2] was “inactive” and the Activity [3] was “inactive”.

`CCC(=C(c1ccc(OCCN2CCCC2)cc1)c1ccc(OCCN2CCCC2)cc1)c1cccc(OC(=O)CCCCCNC(=O)CCCC[C@@H]2SC[C@@H]3NC(=O)N[C@@H]32)c1` was tested, and the Activity [1] was “Dose-dependent effect”, the Kd [4] was 186 nM and the Activity [2] was “Active”. The Activity [3] was “Active”.
